The source of these data is US5468875A, “1-azabicycloheptane derivatives” (American Home Products Corporation, priority 1994, dated 1995).

One may read the pKi as the Ki on a negative log10 scale, so that one unit is a factor of ten. Higher therefore signals a small Ki.

In one series the test system is muscarinic. The conditions noted are these: cited from earlier work.
In another series the target is m1 receptor (Homo sapiens, UniProt P11229). The series is described as follows: biochemical. The conditions noted are these: ml 3H QNB Binding in CHO cells Ki, 0.23 nM [3H]QNB, 37° C., one hour.
Series [1] deals with T1, M1 acetylcholine receptors (Homo sapiens, UniProt P11229).
T1 sequence (P11229 1-460): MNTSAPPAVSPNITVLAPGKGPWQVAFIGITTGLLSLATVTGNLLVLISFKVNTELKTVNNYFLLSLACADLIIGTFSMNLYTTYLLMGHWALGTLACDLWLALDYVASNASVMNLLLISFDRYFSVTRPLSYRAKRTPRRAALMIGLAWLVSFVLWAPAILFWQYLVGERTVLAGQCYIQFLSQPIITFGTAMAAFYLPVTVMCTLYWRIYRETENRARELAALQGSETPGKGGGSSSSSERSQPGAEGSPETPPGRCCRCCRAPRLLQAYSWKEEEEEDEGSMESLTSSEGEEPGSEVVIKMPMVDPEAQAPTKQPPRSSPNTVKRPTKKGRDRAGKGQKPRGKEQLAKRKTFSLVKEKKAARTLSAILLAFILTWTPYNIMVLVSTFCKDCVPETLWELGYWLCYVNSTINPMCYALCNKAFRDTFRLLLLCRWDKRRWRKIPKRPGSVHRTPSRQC
The series is described as follows: stimulation of phosphoinositide (PI) hydrolysis in CHO cells transfected with M1 receptor cDNA. The series is classed as cell-based. The conditions noted are these: for Emax: CHO, 1 h; for pEC50: m1 receptors in CHO cells, read-out: % PI Hydrolysis ml receptors in CHO cells ED50; for functional m1 muscarinic agonism: exo versus endo, in words.

The test system of a further series is m1 receptors. Conditions: cited from earlier work.
Series [2] concerns patients with mild to moderate Alzheimer's Disease. The conditions noted are these: cited from earlier work; for improvement in memory: patients with mild to moderate Alzheimer's Disease.
Series [3] has as its system scopolamine treated animals. Kind of series: reversal of scopolamine-induced hyperactivity, swim tank test. The conditions noted are these: Mus musculus, ip, 5 min, mice, scopolamine.HBr 0.3 mg/kg i.p., swim distance, read-out: minimum effective dose (MED), reversal of hyperactivity of scopolamine treated animals. The series is classed as in vivo, Male CFW mice. The procedure: The compound of Example 3, representative of the other compounds of this invention, was also tested in accordance with the procedure of Symons et al, Soc. Neuroscience Abstracts 12:2, 897 (1986) in which Male CFW mice, 25 to 35 grams in weight are given the test compound in suitable vehicle plus 0.3 mg/kg scopolamine.HBr in suitable vehicle, i.p.(3 groups of 12 animals each) or vehicle alone (1 group of 12 animals ) or vehicle plus scopolamine.HBr (1 group of 12 animals). The mice are placed in a swim tank, individually, containing 10 cm H2 O for a period of 5 minutes and the distance each animal swims is recorded.

For series [4] the following is noted: cited from earlier work.
In series [5] the test system is scopolamine disrupted rat performance. Kind of series: eight arm radial maze test, scopolamine disrupted performance. In kind it is in vivo, Sprague-Dawley male rats. The conditions noted are these: ip, rats, test compound i.p., scopolamine HBr 0.3 mg/kg, s.c., read-out: minimum effective dose (MED), reversal of scopolamine disrupted rat performance. As to the method: The compound of Example 3 was also tested in the eight arm radial maze test procedure in which Sprague-Dawley male rats at 85% of their free feeding weight are trained to obtain two food pellets from food cups placed at the ends of four of the eight arms radiating from a circular central area of the maze, in a five minute period. After training to a level of error (rerum to a previously entered arm is error) equal to or less than 2, the rats performance is disrupted with scopolamine HBr (0.3 mg/kg, s.c.) and test compound dosage (i.p.). The number of errors are then determined and compared with control receiving scopolamine alone.

The mark [6] stands for this setting: read-out: % PI Hydrolysis ml receptors in CHO cells maximum % carbachol=100%.
The mark [7] stands for this setting: read-out: % PI Hydrolysis ml receptors in CHO cells 30x Ki (μM) carb=100%.

pEC50, pKi: −log10 of the molar value. Read-outs that look alike come from different tables or passages of the source.

In the case of `CN(C)C(=O)OC1CC2CCCN(C2)C1` (stereo not drawn) [exo-1-azabicyclo[3.3.1]non-3-yl-N,N-dimethylcarbamate], in the series on muscarinic, the muscarinic activity entry is on record as “having muscarinic activity”. For `CNC(=S)O[C@H]1CN2CC[C@H]1C2` (single isomer, unassigned) [Example 5, (+)-(exo)-Methylthiocarbamic acid 1-aza-bicyclo[2.2.1]hept-3-yl ester], at m1 receptor, the pKi was 5.16. Moreover, the Emax in series [1] (setting [6]) is 51.5%. Besides, the pEC50 in series [1] was 5.54. `O=C(NC1CC1)O[C@H]1CN2CC[C@H]1C2` (relative stereo) [Example 11, (exo)-Cyclopropylcarbamic acid 1-aza-bicyclo[2.2.1]hept-3-yl ester] had a pKi at m1 receptor of 5.74. The Emax in series [1] (setting [7]) stood at 10.1%.

Turning to `CNC(=O)OC1CC2CCCN(C2)C1` (stereo not drawn) [exo-1-azabicyclo[3.3.1]non-3-yl-N-methylcarbamate], the muscarinic activity result with muscarinic is given as “having muscarinic activity”. For the molecule `C[C@@H]1O[C@H](C[N+](C)(C)C)C[C@H]1O` [muscarine], the “activation of m1 receptors” value in the series on m1 receptors is given as “able to fully activate m1 receptors”. `CCNC(=O)O[C@H]1CN2CC[C@H]1C2` (single isomer, unassigned) [Example 7, (+)-(exo)-Ethylcarbamic acid 1-aza-bicyclo[2.2.1]hept-3-yl ester]: the pKi at m1 receptor is 4.84. As for `Nc1c2c(nc3ccccc13)CCCC2` [tactine], in series [2] (higher doses), the adverse side effects entry is reported as “adverse side effects especially at the higher doses where it is most effective”. Moreover, the improvement in memory entry in series [2] is on record as “improvement in memory can be shown in patients with mild to moderate Alzheimer's Disease”. On m1 receptor, `CNC(=O)O[C@H]1CN2CC[C@H]1C2` (single isomer, unassigned) [Example 3, (-)-(exo)-Methylcarbamic acid 1-aza-bicyclo[2.2.1]hept-3-yl ester] had a pKi of 4.57. Also, the minimal effective dose in series [3] is 30 mg/kg. For the same molecule, the Emax in series [1] (setting [7]) was 71.9%; in series [1] (setting [6]), 68.7%. In addition, in series [1], the pEC50 was 5.01.

Turning to `CNC(=O)OC1CN2CCCC1C2` (stereo not drawn) [exo-1-azabicyclo[3.2.1oct-6-yl-N-methylcarbamate], in the series on muscarinic, the muscarinic activity result is recorded as “having muscarinic activity”. Turning to `O=C(NCC(F)(F)F)O[C@H]1CN2CC[C@H]1C2` (relative stereo) [Example 9, (exo)-(2.2.2-Trifluoroethyl)carbamic acid 1-aza-bicyclo[2.2.1]hept-3-yl ester], the pKi at m1 receptor was 4.84. For `C#CCNC(=O)O[C@H]1CN2CC[C@H]1C2` (single isomer, unassigned) [Example 13, (-)-(exo)-Propargylcarbamic acid 1-aza-bicyclo[2.2.1]hept-3-yl ester], the pKi on m1 receptor is 4.84. Besides, the Emax in series [1] (setting [7]) was 39.4%. With `COC(=O)C1=CCCN(C)C1` [Arecoline, arecoline], the half-life entry in series [4] is given as “short half-life”. The improvement in memory result in series [2] is “demonstrated memory improvement in patients with mild to moderate Alzheimer's Disease”. For the molecule `CNC(=O)O[C@H]1CN2CC[C@H]1C2` (single isomer, unassigned) [Example 2, (+)-(exo)-Methylcarbamic acid 1-aza-bicyclo[2.2.1]hept-3-yl ester], the pKi on m1 receptor was 4.38. Moreover, in series [5], the minimal effective dose amounted to 1 mg/kg. The molecule `CCNC(=O)O[C@H]1CN2CC[C@H]1C2` (single isomer, unassigned) [Example 8, (-)-(exo)-Ethylcarbamic acid 1-aza-bicyclo[2.2.1]hept-3-yl ester] showed a pKi at m1 receptor of 4.67. For the same molecule, the Emax in series [1] (setting [7]) was 58.8%. The corresponding values for `CNC(=S)O[C@H]1CN2CC[C@H]1C2` (relative stereo) [Example 4, (exo)-Methylthiocarbamic acid 1-aza-bicyclo[2.2.1]hept-3-yl ester] are 5.43 and 21.8%.

On m1 receptor, `CNC(=O)O[C@H]1CN2CC[C@H]1C2` (relative stereo) [Example 1, (exo)-Methylcarbamic acid 1-aza-bicyclo[2.2.1]hept-3-yl ester] showed a pKi of 4.53. For the same molecule, in series [1] (setting [7]), the Emax was determined as 61.9%. Further, in series [1] (setting [6]), the Emax is 54.9%. In addition, in series [1], the “functional m1 muscarinic agonism” value is reported as “enhanced muscarinic agonism” and the pEC50 was 5.16.

For the molecule `CNC(=S)O[C@H]1CN2CC[C@H]1C2` (single isomer, unassigned) [Example 6, (-)-(exo)-Methylthiocarbamic acid 1-aza-bicyclo[2.2.1]hept-3-yl ester], the pKi at m1 receptor was 4.84. In addition, the “% PI Hydrolysis ml receptors in CHO cells maximum % carbachol=100%” value in series [1] (cho cells, 60 min) was determined as 69.7%. For the same molecule, in series [1], the pEC50 is 5.20. For `O=C(NC1CC1)O[C@H]1CN2CC[C@H]1C2` (single isomer, unassigned) [Example 12], the pKi on m1 receptor was 4.69.

On to `CNC(=O)O[C@H]1CN2CC[C@@H]1C2` (relative stereo) [endo azacycloheptane analog], for which the “functional m1 muscarinic agonism” value in series [1] is “not”. The molecule `O=C(NCC(F)(F)F)O[C@H]1CN2CC[C@H]1C2` (single isomer, unassigned) [Example 10, (-)-(exo)-(2.2.2-Trifluoroethyl)carbamic acid 1-aza-bicyclo[2.2.1]hept-3-ylester] had a pKi at m1 receptor of 4.75.
